According to patent EP0684822B1, “CARBOCYCLIC DEOXYGUANOSINE ANALOGS FOR THE TREATMENT OF VIRAL INFECTIONS” (SOUTHERN RESEARCH INSTITUTE, priority 1993, dated 1994):
Converted amounts (≈) assume the structure as drawn. “And” between values parts separate entries of the source, which are not always exact repeats. Identical values can stand only once.

What was measured:
HSV-TK extract = target: T1, HSV-TK extract (Human herpesvirus 1, UniProt P0DTH5); assay: Phosphorylated products formed by HSV-TK extract, SAX HPLC; format: biochemical, HSV-1
T1 construct: HSV thymidine kinase (HSV TK) was isolated from HELA (BU25) cells infected with the SW148 strain of HSV-1; made in house; host or cells: HeLa (BU25) thymidine-kinase-deficient cells infected with HSV-1 strain S148/SW148
T1 sequence (P0DTH5 whole entry): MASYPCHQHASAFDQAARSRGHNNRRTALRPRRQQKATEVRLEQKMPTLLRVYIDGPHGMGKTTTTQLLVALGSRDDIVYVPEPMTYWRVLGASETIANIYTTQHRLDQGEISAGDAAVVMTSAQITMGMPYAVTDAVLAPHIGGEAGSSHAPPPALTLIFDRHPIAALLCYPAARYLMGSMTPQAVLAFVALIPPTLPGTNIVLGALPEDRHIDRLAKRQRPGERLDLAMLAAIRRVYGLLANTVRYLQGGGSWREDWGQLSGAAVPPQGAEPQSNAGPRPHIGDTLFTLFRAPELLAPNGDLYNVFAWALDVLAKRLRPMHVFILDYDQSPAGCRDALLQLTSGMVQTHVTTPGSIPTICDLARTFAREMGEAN
Experimental: HSV thymidine kinase activity was measured in 200 µl volumes containing HSV-TK extract obtained as described previously (Belzarini et al., supra), 5.0 mM ATP, 5 mM MgCl2, 9 mM potassium fluoride, 11.2 µg phosphoenol pyruvate, 5 µg of pyruvate kinase, 10 mM β-mercaptoethanol and either 50 µM [3H]-D-, L, or no drug for 60 minutes at 37°C. The reaction was stopped with perchloric acid (PCA), neutralized with potassium bicarbonate, and the reaction products were analyzed by SAX HPLC. The UV absorption spectra of selected peaks were determined with a rapid spectral detector (LKB, Gaithersburg, MD). […] The amount of monophosphate derived from L-2'CdG was about the same as the amount of triphosphate derived from D-2'CdG, and confirmed the results of the disk assay.
HSV extracts were also incubated with 10 µM of either [^3H]-D- or L-2'Cdg, as described above, to measure the metabolism of these entantiomers. After 2 hours the reaction was stopped with perchloric acid (PCA), neutralized with potassium bicarbonate, and the acid-soluble metabolites were separated using SAX HPLC as described above. The results are summarized below.: TABLE 3

[1] = test system: H.Ep.-2 cells infected with HSV-1; assay: Metabolism in HSV-1-infected H.Ep.-2 cells, SAX HPLC; format: cell-based, human; settings: H.Ep.-2 cells infected with HSV-1, 8 hours, Fig. 4
Experimental: The in vivo metabolism of D- and L-2'CdG was also measured in HSV-[TK+]-infected, HSV-[TK-]-infected and mock infected H.Ep.-2 cells (human epidermal carcinoma cells, ATCC CCL23). Uninfected and infected cells were incubated in fresh medium containing 2 µCi/ml of either [^3H]-D- or L-2'CdG, as described above, to measure the metabolism of these enantiomers. After 8 hours the cells were harvested and washed free of medium with PBS, and extracts were prepared with cold 0.5 N perchloric acid for 0.5 hr. The extract was then neutralized with potassium bicarbonate and the resulting precipitate was removed by centrifugation. The supernatant was lyophilized to dryness and the acid-soluble metabolites were separated using SAX HPLC as described above.
While these findings are similar to those obtained with the isolated viral kinase, they differ from the resulted with the isolated enzyme in that relatively more di- and triphosphate were formed from L-2'CdG.

HSV-1 (strain 377, TK+) = assay: Antiviral activity against HSV-1; format: cell-based
Experimental: D-2'-CdG and L-2'-CdG were tested, alongside D,L-2'-CdG, against both HSV-1 (strain 377, TK+; obtained from Dr. Earl Kern, University of Alabama) and HSV-2 (strain MS, TK+; also obtained from Dr. Earl Kern). In these tests (Table 5), Ara-A and acyclovir (ACV) were the positive control drugs. In four tests vs. HSV-1, the antiviral activity (VR) and potency (MIC50) of D-2'-CdG were approximately the same as those of racemic 2-CdG. L-2'-CdG was only modestly active.

HBV = HBV DNA production and replication in 2.2.15 cell cultures; format: cell-based, Hepatitis B virus (HBV); settings: for INTRACELLULAR HBV DNA INTEG. / INTRACELLULAR HBV DNA MONO. / INTRACELLULAR HBV DNA RI: 24 hours following 10th day of treatment; for HBV DNA IN CULTURE MEDIUM DAY 0: day 0 of treatment
Experimental: 2'-CdG was tested at three concentrations (50 ng/ml, 500 ng/ml, and 5 ug/ml) against the HBV-producing, human liver cell line, 2.2.15 (Sells et al., J. Virol. 62:2836, 1989). A racemic (D,L) preparation, as well as the purified D and L isomers were tested. For these analyses compounds were tested in duplicate at all concentrations. Ara-AMP and ddG (2'3'-dideoxyguanosine) were used as HBV inhibitory control compounds. […] The nucleoside analog, ddG was used as an additional control compound since ddG has activity against duck hepatitis B virus in chronically infected Peking ducks (Lee et al., Antimicrob. Agents Chemother. 33:336, 1989) and 2'-CdG is also a deoxyguanosine analog.
2.2.15 cells were seeded in 6 well culture plates and grown to confluence over a 10 day period in medium with 5% FBS. Test compounds were then added daily for a continuous 10 day period in medium with 1% dialyzed FBS. […] Compounds were tested, in duplicate cultures, at 3 concentrations covering a 100-fold range. Culture medium (changed daily during the treatment period) was collected and stored for analysis of extracellular (virion) HBV DNA from days 0, 3, 6, and 10 of the treatment period. This allowed for an analysis of the level of HBV virion production during discrete 24 hour intervals and reduced the potential for the buildup of toxic metabolites derived from the test compounds. Treated cells were lysed following the 10th day of treatment for the analysis of intracellular HBV genomic forms. HBV DNA was analyzed in a quantitative manner for (i) overall levels (both extracellular and intracellular DNA) and (ii) the relative rate of HBV replication (intracellular DNA only).
HBV DNA levels were measured by comparison to known amounts of HBV DNA standards applied to every nitrocellulose filter (gel or slot blot) using an AMBIS Beta Scanner. Standard curves, generated by multiple analyses, were used to correlate CPM measurements with relative levels of target HBV DNA. The levels of HBV DNA in each of three classes of intracellular viral genomic forms were individually quantitated: integrated HBV DNA, episomal monomeric genomes and HBV DNA replication intermediates (RI). Integrated HBV DNA was used to normalize the relative amounts of DNA in each lane because the levels of this class of HBV DNA would be expected to remain constant on a per cell basis. The levels of the monomeric HBV genomes and RI were used as an indicator of the relative level of HBV replication.

## Nc1nc2c(ncn2[C@@H]2C[C@H](CO)[C@@H](O)C2)c(=O)[nH]1 [D-2'-CdG, [1R,3S,4R-(1α,3β,4α)]-D-2-Amino-1,9-dihydro-9-[3-hydroxy-4-(hydroxymethyl)cyclopentyl]-6H-purin-6-one]
HSV-TK extract; 10 µM [3H] compound, 2 hours
  DPM di: 2427 DPM
  DPM mono: 2138 DPM
  DPM nucleoside: 38555 DPM
  DPM total: 128000 DPM
  DPM tri: 85073 DPM
HSV-TK extract; 50 µM, 60 minutes at 37°C, Fig. 3
  major phosphorylated derivative: the triphosphate
[1]
  principal soluble metabolite: the triphosphate
HSV-1 (strain 377, TK+); HSV-1, range of tests
  VR: 4.8-6.3
HSV-1 (strain 377, TK+); Human alphaherpesvirus 1, HSV-1, range of tests, read-out: Mic50
  EC50: 0.1 to 0.3 µg/mL (≈ 0.377 to 1.13 µM)
HSV-1 (strain 377, TK+); more potent than ACV
  potency relative to ACV: 5-10 times
HBV; 50 ng/ml to 5 ug/ml, 2.2.15 cells
  anti-HBV activity (in words): as active an inhibitor of HBV replication as the racemic mixture
HBV; 50ng/ml, listed as D, 2CdG
  INTRACELLULAR HBV DNA INTEG.: 1.6 PG/UG CELL DNA and 1.3 PG/UG CELL DNA
  INTRACELLULAR HBV DNA MONO.: 1.3 PG/UG CELL DNA and 2.1 PG/UG CELL DNA
  INTRACELLULAR HBV DNA RI: 16 PG/UG CELL DNA and 20 PG/UG CELL DNA
  HBV DNA IN CULTURE MEDIUM DAY 0: 100 pg/mL and 77 pg/mL
  HBV DNA IN CULTURE MEDIUM DAY 3: 110 pg/mL and 70 pg/mL
  HBV DNA IN CULTURE MEDIUM DAY 6: 38 pg/mL and 40 pg/mL
HBV; 500ng/ml
  INTRACELLULAR HBV DNA RI: 1 PG/UG CELL DNA
HBV; 500ng/ml, listed as D, 2-CdG
  INTRACELLULAR HBV DNA INTEG.: 1.0 PG/UG CELL DNA and 1.6 PG/UG CELL DNA
  INTRACELLULAR HBV DNA MONO.: 1.9 PG/UG CELL DNA and 1.8 PG/UG CELL DNA
  HBV DNA IN CULTURE MEDIUM DAY 0: 80 pg/mL and 90 pg/mL
  HBV DNA IN CULTURE MEDIUM DAY 3: 36 pg/mL and 43 pg/mL
  HBV DNA IN CULTURE MEDIUM DAY 6: 15 pg/mL and 14 pg/mL
HBV; 5 ug/ml
  INTRACELLULAR HBV DNA MONO.: 2.0 PG/UG CELL DNA
HBV; 5 ug/ml, listed as D, 2-CdG
  HBV DNA IN CULTURE MEDIUM DAY 0: 100 pg/mL and 120 pg/mL
  HBV DNA IN CULTURE MEDIUM DAY 3: 18 pg/mL and 21 pg/mL
  HBV DNA IN CULTURE MEDIUM DAY 6: 3 pg/mL and 6 pg/mL
HBV; 5 ug/ml, day 10
  HBV DNA IN CULTURE MEDIUM DAY 10: 0 pg/mL
